# Experiments:
# [1] = system: S100A4-MetAP2 interaction; experiment: In vitro GST pull-down binding assay S100A4-MetAP2; conditions: [35S]MetAP2, GST/S100A4, 1 mmol/l CaCl2; peptide at 25-fold molar excess of MetAP2
# MSS31 cells [2] = experiment: Capillary formation (tube formation) on Matrigel; format: cell-based, mouse
# NMIIA in MSS31 cells = experiment: NMIIA filament assembly and S100A4-NMIIA colocalization by immunofluorescence; format: cell-based, mouse; conditions: atelocollagen complex, 5 μg/well, 18 hours
# Protocol: Figure 6 Stimulation of NMIIA phosphorylation and filament assembly by the NBD peptide. MSS31 cells incubated with atelocollagen alone or the peptide/atelocollagen complexes were subjected to western blot analysis and immunofluorescent staining. (a) Western blot analysis of NMIIA phosphorylation. Total cellular proteins were subjected to immunoblot analysis. The band intensity of p-NMIIA relative to that of total NMIIA was measured using ImageJ software and normalized to control cells. (b) NMIIA assembly. MSS31 cells were simultaneously incubated with rabbit polyclonal anti-S100A4 antibody and mouse monoclonal anti-NMIIA antibody followed by Alexa Fluor 488-conjugated goat antirabbit IgG and Alexa Fluor 594-conjugated goat antimouse IgG. Nuclei were stained with DAPI. Scale bars: 50 μm. (c) Blockade of S100A4-NMIIA interaction by the NBD peptide. MSS31 cells were immunostained as in a. White arrows and yellow arrows indicate colocalized areas and independently localized areas of S100A4 and NMIIA, respectively. Bars: 20 μm. TEXT PRINTED IN THE PICTURE: (a) NBD: p-NMIIA/total NMIIA: 1.78 | (a) CBD: p-NMIIA/total NMIIA: 0.66
# MSS31 cells cultured in six-well plates were incubated with 5 μg/well of the NBD or the CBD peptide/atelocollagen complex or atelocollagen alone for 18 hours in Culture Slides (4 wells, BD Falcon) and were washed three times with DPBS and fixed for 10 minutes at 4 °C with 4% formaldehyde in DPBS. After permeabilizing with 0.5% Triton X-100 in DPBS for 4 minutes, the cells were treated with 3% bovine serum albumin in DPBS containing 0.1% glycine for 1 hour to block nonspecific binding sites. After washing with DPBS, the cells were incubated for 1 hour with primary antibodies, rinsed, and then stained with secondary antibodies. The primary antibodies used were polyclonal anti-S100A4, monoclonal anti-NMIIA antibody, monoclonal antivinculin antibody and polyclonal anti-integrin β1 antibody. The secondary antibody was Alexa Fluor 488-conjugated goat antirabbit IgG (Invitrogen) or Alexa Fluor 594-conjugated goat antimouse IgG (Invitrogen). […]
# MSS31 cells [3] = experiment: Cell cycle progression by BrdU flow cytometry; format: cell-based, mouse; conditions: 9 hours
# Protocol: Since the overexpression of the SBD in MSS31 cells caused DNA synthesis inhibition, we examined the effect of the NBD peptide on cell cycle progression by flow cytometry after treating the cells with various concentrations of the synthetic peptides (0–1.0 μg/well) complexed with atelocollagen for 9 hours.
# (§1) Figure 8 Inhibition of cell cycle progression and cell growth by the NBD peptide. MSS31 cells were treated with atelocollagen alone or the NBD or the CBD peptide/atelocollagen complex in vitro. (a) Cell cycle progression. The cells were labeled with BrdU and then subjected to flow cytometry. (b) Cell growth. The values represent cell growth rate relative to that of control cells that is set to 100%. The NBD peptide inhibited the growth of MSS31 cells compared to the control cells (atelocollagen alone). Data represent the mean ± SD (n = 4), P < 0.01. TEXT PRINTED IN THE PICTURE: (a) NBD: S:13.2%; G1:70.7%; G2/M:9.6% | (a) CBD: S:32.1%; G1:55.4%; G2/M:8.9% | (a) peptide(−): S:36.7%; G1:49.6%; G2/M:9.7%
# MSS31 cells treated with 1.0 μg/ml of the NBD peptide or the CBD peptide/atelocollagen were labeled with 10 μmol/l BrdU for 6 hours. Atelocollagen alone was used as a control. Flow cytometric analysis was carried out using the FITC BrdU Flow Kit (BD Biosciences Pharmigen, San Diego, CA) following the manufacturer’s instructions.
# MSS31 cells [4] = experiment: MSS31 cell growth; format: cell-based, mouse; conditions: atelocollagen complex; relative to control cells set to 100%; n = 4, P < 0.01
# Protocol: as §1
# S100A4 in MSS31 cells = experiment: S100A4 expression in peptide-loaded cells by western blot; format: cell-based, mouse; conditions: atelocollagen complex; Supplementary Figure S3
# [5] = 0–1.0 μg/well with atelocollagen
substance,measurement,setting,value
"NBD: N-terminal 39 amino acid sequence of SBD, from Arg170 to Ileu208; corresponding to MetAP2 (170–208) (REAAEAHRQVRKYVMSWIKPGMTMIEICEKLEDCSRKLI)",inhibition of S100A4-MetAP2 interaction (GST pull-down),[1],inhibited the binding as efficiently as SBD
same,time at which inhibition of capillary formation is apparent,"MSS31 cells [2]; after peptide loading, Supplementary Figure S4",≤ 6 h
same,tube (capillary) formation,"MSS31 cells [2]; atelocollagen complex, 5 μg/well, Matrigel with 50 ng/ml HGF, 16 hours, n = 6, *P < 0.01",severely impaired tube formation
same,NMIIA filament assembly,NMIIA in MSS31 cells,stimulated filament assembly in MSS31 cells
same,colocalization of S100A4 and NMIIA,NMIIA in MSS31 cells,the majority of S100A4 was not colocalized with NMIIA filaments
same,distribution of NMIIA filaments,NMIIA in MSS31 cells,evenly distributed throughout the cells and showed no polarization
same,effect on G2/M phase,MSS31 cells [3]; [5],not significantly affected
same,effect on cell cycle progression,MSS31 cells [3]; [5],leads to cell cycle arrest in the G1/S phase
same,cells in G2/M phase,"MSS31 cells [3]; atelocollagen complex, BrdU flow cytometry, representative study, without peptide 9.7%",9.6%
same,cells in S phase,"MSS31 cells [3]; atelocollagen complex, BrdU flow cytometry, representative study, without peptide 36.7%",13.2%
same,cells in G1 phase,"MSS31 cells [3]; atelocollagen complex, BrdU flow cytometry, representative study, without peptide 49.6%",70.7%
same,growth of MSS31 cells,MSS31 cells [4],significantly inhibited the growth of MSS31 cells
same,expression level of S100A4,S100A4 in MSS31 cells,no apparent change in the expression level of S100A4
